Data taken from patent publication US20200345049A1, “COMPOSITIONS” (Givaudan, S.A., priority 2017, published 2020).
“Also recorded” adds a separate entry of the source.

Columns and labels:
[1] = Sweetness relative to sucrose; format: in vivo
Method: The term “sucrose equivalence” refers to the equivalence in sweetness of a composition containing at least one non-sucrose sweetener to a reference sucrose solution. […] Other non-sucrose sweeteners may then be tasted at a series of dilutions to determine the concentration of the non-sucrose sweetener that is as sweet (i.e. isosweet) to a given sucrose reference. The term “isosweet” refers to compositions that have equivalent sweetness. Typically, the sweetness of a given composition is measured with reference to a solution of sucrose. See “A Systematic Study of Concentration-Response Relationships of Sweeteners,” […]. Walters, […]. Booth, […]. Gibes, B. T. Carr, and L. M. Brands, in Sweeteners: Discovery, Molecular Design and Chemoreception, D. E. Walters, F. T. Orthoefer, and G. E. DuBois, Eds., American Chemical Society, Washington, D.C. (1991), pp 261-276.

[2] = tested on: sweet sensitive taste panel of five experts (trained flavourists); assay: Taste evaluation of mogroside V / 11-O-mogroside V solutions in 5% (w/v) sucrose and 0.03% (w/v) citric acid; format: in vivo, human; details: compared to mogroside V alone
Description: Mogroside V and 11-O-mogroside V were isolated from extracts of Luo Han Guo using Agilent 1100 preparative HPLC system with a Phenomenex Luna C18 (2) column (5 μm, 210×21.4 mm), and combined to form solutions of various concentrations.
These solutions were combined with a solution containing 5% (w/v) sucrose and 0.03% (w/v) citric acid to give test samples and evaluated by a sweet sensitive taste panel of five experts (trained flavourists).

C[C@H](CC[C@@H](O[C@@H]1O[C@H](CO[C@@H]2O[C@H](CO)[C@@H](O)[C@H](O)[C@H]2O)[C@@H](O)[C@H](O)[C@H]1O[C@@H]1O[C@H](CO)[C@@H](O)[C@H](O)[C@H]1O)C(C)(C)O)[C@H]1CC[C@@]2(C)[C@H]3CC=C4[C@@H](CC[C@H](O[C@@H]5O[C@H](CO[C@@H]6O[C@H](CO)[C@@H](O)[C@H](O)[C@H]6O)[C@@H](O)[C@H](O)[C@H]5O)C4(C)C)[C@]3(C)C(=O)C[C@]12C [11-O-mogroside V, 11-O-Mogroside V]
Sweetness relative to sucrose ([1]; Example 2 results): 84 times sweeter than sucrose
Sweetness relative to sucrose ([1]; description): about 84 times the sweetness of sucrose
Effect of blending 11-O-mogroside V with mogroside V on sweet quality [2]: improves the sweet quality compared to mogroside V alone; also recorded: helped to reduce sweetness lingering (weaken later sweetness taste) and reduce astringent and bitter aftertastes compared to mogroside V alone
